Biological target: T1, NK3 receptor (Cavia porcellus, UniProt P30098)
T1 construct: contractile effects of the selective NK3 receptor agonist senktide in the guinea-pig ileum; from tissue; host or cells: guinea-pig ileum
T1 sequence (P30098 1-440): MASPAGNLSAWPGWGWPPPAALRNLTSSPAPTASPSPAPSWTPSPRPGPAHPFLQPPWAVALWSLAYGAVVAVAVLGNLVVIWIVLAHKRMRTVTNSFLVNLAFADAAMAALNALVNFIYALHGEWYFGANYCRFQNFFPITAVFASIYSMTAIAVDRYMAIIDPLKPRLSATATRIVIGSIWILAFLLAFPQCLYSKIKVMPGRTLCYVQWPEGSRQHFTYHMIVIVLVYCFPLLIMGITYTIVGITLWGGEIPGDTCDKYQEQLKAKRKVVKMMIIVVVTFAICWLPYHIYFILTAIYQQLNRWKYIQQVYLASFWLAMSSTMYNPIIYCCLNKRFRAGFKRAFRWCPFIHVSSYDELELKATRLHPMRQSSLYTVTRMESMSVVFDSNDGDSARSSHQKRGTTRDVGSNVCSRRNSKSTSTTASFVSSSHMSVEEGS
Experiment: NK3 receptor antagonist activity in vitro: antagonism of contractile effects of senktide in guinea-pig ileum
Settings: antagonism of contractile effects of the selective NK3 receptor agonist senktide, read-out: pIC50 for NK3 activity (converted)
Description: The compounds of the formula (I) and their salts can be tested for NK3 receptor antagonist activity, in vitro, by testing their ability to antagonise the contractile effects of the selective NK3 receptor agonist senktide in the guinea-pig ileum using the method of Maggi et al, Br. J. Pharmacol., 101, 996-1000 (1 990).

NS(=O)(=O)N1CCN(C2CN(CCCC3(c4ccc(Cl)c(Cl)c4)CCCN(C(=O)c4ccccc4)C3)C2)CC1 (stereo not shown) [Example 2]
IC50: 3.98 nM

— patent US6242438A, “3-Azetidinylalkylpiperidines or -pyrrolidines as tachykinin antagonists” (Pfizer Inc., priority 1996, dated 2001)
